Test results taken from patent US20190240292A1, “METHODS OF ADMINISTERING HEPCIDIN” (priority 2016, published 2019).

Assays:
serum iron levels [1] = test: Subcutaneous hepcidin 50, 100, 200 μg, effect on serum iron levels in mice (Example 2); assay type: in vivo; details: for serum iron levels compared to vehicle: p<0.01
Protocol: A study was designed to evaluate doses of 50, 100, and 200 μg of hepcidin delivered subcutaneously and their effect on serum iron levels in mice (n=7/group). […] Conversely, 50 μg and 100 μg doses were elevated (p<0.01) compared to the vehicle at 24 hours post dose. The elevated levels of serum iron could be due to the system's reaction to the clearance of hepcidin. […] Mortality was likely related to the stress of the blood collection. Serum iron levels normalized 72 hours post dose.

serum iron levels [2] = test: Subcutaneous hepcidin, effect on serum iron levels in mice (Example 1); assay type: in vivo; details: 50 μg subcutaneous, p<0.05
Excerpt: A study was designed to evaluate the effect of subcutaneous doses of hepcidin on serum iron levels in mice (n=6-7/group).

[3] = based on animal data
serum iron concentration = test: Serum iron levels in patients after hepcidin (Example 7); assay type: in vivo, human
Protocol: Serum iron levels were measured in six patients with sickle cell disease patients and hereditary hemochromatosis patients post administration of hepcidin. Serum iron levels were measured prior to hepcidin administration (baseline) as well as post hepcidin administration at 2 hours, 4 hours, 8 hours, 24 hours, 48 hours, and […]. Patients were divided into two cohorts, cohort 1 was administered 1 mg of hepcidin and cohort 2 was administered 5 mg of hepcidin. Cohort 1 comprised sickle cell patients 1001 and 1002 as well as hereditary hemochromatosis patient 1003, while cohort 2 comprised hereditary hemochromatosis patients 2001, 2002, and 2004. Percent change of serum iron concentration for individual patients and average percent changes for both cohorts are shown in FIGS. 6 and 7. On average, hepcidin administration decreased serum iron concentration over an 8 day period by 35-40% in both cohorts.

[4] = system: transferrin saturation (TSAT); test: Transferrin saturation (TSAT) in patients after hepcidin (Example 6); assay type: in vivo, human; details: for Transferrin saturation - percent change from baseline: eight days post administration
Protocol: Transferrin saturation (TSAT) was measured in patients described in Example 1. TSAT indicates the percent of iron-binding sites of transferrin that are occupied by iron, making TSAT an important tool in diagnosis and monitoring of blood disorders and disease. A one milligram bolus of hepcidin was administered to sickle cell disease patients 1001 and 1002 and hereditary hemochromatosis patient 1003, while patients 2001 and 2002 were administered 5 mg of hepcidin each. TSAT levels were measured eight days post hepcidin administration.

serum iron levels [5] = test: Subcutaneous hepcidin 1, 5, 10, 50 mg, effect on serum iron levels in normal rats (Example 3); assay type: in vivo
Protocol: A study was designed to evaluate doses of 1, 5, 10, and 50 mg of hepcidin delivered subcutaneously and their effect on serum iron levels in normal rats (n=7/group). […] Tmax and Cmax were reached between 1 and 2 hours post dose for all dose groups, but the uptake between the high and mid dose were very similar at these time points. […] In the 5 mg dose, serum iron levels returned to pre-dose levels at 48 hours post dose.

[6] = Expanded acute study (NOAEL), hepcidin SC in Sprague Dawley rats (Example 4)
Protocol: A study was designed to evaluate doses of 5, 25, and 50 mg/kg of hepcidin (human equivalent dose of 0.8, 4, 8 mg/kg, respectively), delivered SC to Sprague Dawley rats (n=9/sex/group).

serum ferritin = test: Serum ferritin in sickle cell disease and hereditary hemochromatosis patients after hepcidin (Example 5); assay type: in vivo, human; details: 8 days post administration
Protocol: Hepcidin administration lowered ferritin blood levels in sickle cell patients with high baseline ferritin. A 1 milligram bolus of hepcidin was administered subcutaneously to two male patients with sickle cell disease (patients 1001 and 1002). Serum ferritin concentrations were measured at baseline as well as eight days post administration of hepcidin. Ferritin blood levels were lower 8 days post hepcidin administration in both patients (FIG. 1). Percent changes in ferritin blood levels for patients 1001 and 1002 were −45% and −61%, respectively (FIG. 3).
Hepcidin was administered to three hereditary hemochromatosis patients with normal baseline serum ferritin concentrations. Hereditary hemochromatosis patient 1003 was administered 1 mg of hepcidin, while two other patients (2001 and 2002) were administered 5 mg of hepcidin. Ferritin blood levels were measured in all patients eight days post hepcidin administration (FIG. 2). Percent change in ferritin blood levels among patients 1003, 2001, and 2002 were 25%, −19%, and 18%, respectively (FIG. 3).

[7] = Expanded acute study (NOAEL), single subcutaneous dose of hepcidin in dogs (Example 4); assay type: in vivo; details: for dose at which mixed cell infiltration in the administration site was found (microscopic): males and females
Protocol: Increased thickness in the administration site was observed on Day 4 at 50 mg/kg and on Day 15 at ≥25 mg/kg. Microscopic findings on Day 4 consisted of mixed cell infiltration in the administration site in males and females at ≥25 mg/kg, while on Day 15, microscopic findings at the administration site included mixed cell infiltration in males and females at ≥5 mg/kg, fibrosis in males at ≥25 mg/kg and in females at ≥5 mg/kg, and cystic space in males at 50 mg/kg and in females at ≥25 mg/kg.

[8] = patient 1001, sickle cell disease, 1 mg
[9] = patient 1002, sickle cell disease, 1 mg
[10] = patient 1003, hereditary hemochromatosis, 1 mg
[11] = patient 2001, hereditary hemochromatosis, 5 mg
[12] = patient 2002, hereditary hemochromatosis, 5 mg
[13] = Sprague Dawley rats, 5, 25 and 50 mg/kg SC

CC[C@H](C)[C@@H]1NC(=O)[C@@H](NC(=O)[C@@H](NC(=O)[C@@H]2CCCN2C(=O)[C@H](Cc2ccccc2)NC(=O)[C@H](Cc2c[nH]cn2)NC(=O)[C@@H](NC(=O)[C@@H](N)CC(=O)O)[C@@H](C)O)[C@@H](C)CC)CSSC[C@@H](C(=O)N[C@@H](CCCCN)C(=O)N[C@H](C(=O)O)[C@@H](C)O)NC(=O)[C@@H]2CSSC[C@@H]3NC(=O)[C@@H]4CSSC[C@H](NC(=O)[C@H](Cc5ccccc5)NC1=O)C(=O)N[C@@H](CSSC[C@H](NC(=O)[C@H](CCCCN)NC(=O)[C@H](CO)NC(=O)[C@H](CCCNC(=N)N)NC(=O)[C@H](Cc1c[nH]cn1)NC3=O)C(=O)NCC(=O)N[C@@H](CCSC)C(=O)N2)C(=O)NCC(=O)N4 [hepcidin]
serum iron levels compared to vehicle (serum iron levels [1]; mice, 50 μg and 100 μg subcutaneous, 24 hours post dose): elevated
serum iron levels compared to vehicle (serum iron levels [1]; mice, 50, 100 and 200 μg subcutaneous, 4 hours post dose): significant decrease
time post dose at which serum iron levels normalized (serum iron levels [1]; mice, subcutaneous): 72 h
mortality (serum iron levels [1]; mice, following the 4-hour blood collection, likely related to stress of blood collection): One mouse died
decrease in serum iron levels compared to vehicle (average) (serum iron levels [2]; 4 hours post dose): 40%
decrease in serum iron levels compared to vehicle (average) (serum iron levels [2]; 24 hours post dose): 15%
dose that may cause adverse effects in humans [3]: about 200 mg
average decrease of serum iron concentration over an 8 day period (serum iron concentration; both cohorts (cohort 1: 1 mg; cohort 2: 5 mg)): 35-40%
efficacy in human subjects (serum iron concentration; doses of 1 mg and 5 mg hepcidin): display efficacy
Serum iron concentration, maximum observed percentage change from baseline (serum iron concentration; [8]): −6%
Serum iron concentration, percentage change from baseline 8 days after administration of hepcidin (serum iron concentration; [8]): −4%
Serum iron concentration, maximum observed percentage change from baseline (serum iron concentration; [9]): −69%
Serum iron concentration, percentage change from baseline 8 days after administration of hepcidin (serum iron concentration; [9]): −69%
Serum iron concentration, maximum observed percentage change from baseline (serum iron concentration; [10]): −37%
Serum iron concentration, percentage change from baseline 8 days after administration of hepcidin (serum iron concentration; [10]): −37%
Serum iron concentration, maximum observed percentage change from baseline (serum iron concentration; [11]): −53%
Serum iron concentration, percentage change from baseline 8 days after administration of hepcidin (serum iron concentration; [11]): −40%
Serum iron concentration, maximum observed percentage change from baseline (serum iron concentration; [12]): −24%
Serum iron concentration, percentage change from baseline 8 days after administration of hepcidin (serum iron concentration; [12]): −24%
Serum iron concentration, maximum observed percentage change from baseline (serum iron concentration; patient 2004, hereditary hemochromatosis, 5 mg): −35%
TSAT at day eight versus baseline ([4]; all patients (1001, 1002, 1003 at 1 mg; 2001, 2002 at 5 mg)): percent decrease
Transferrin saturation - percent change from baseline [4, 8]: −19%
Transferrin saturation - percent change from baseline [4, 9]: −62%
Transferrin saturation - percent change from baseline [4, 10]: −27%
Transferrin saturation - percent change from baseline [4, 11]: −26%
Transferrin saturation - percent change from baseline [4, 12]: −40%
time post dose at which serum iron levels returned to pre-dose levels (serum iron levels [5]; 5 mg subcutaneous): 48 h
return of serum iron levels to pre-dose levels (serum iron levels [5]; 10 mg and 50 mg subcutaneous, 72 hours post dose): did not return to pre-dose levels
effect on serum iron levels at 72 hours (serum iron levels [5]; 50 mg subcutaneous): still demonstrated an effect
serum iron levels (serum iron levels [5]; subcutaneous, all dose levels (1, 5, 10, 50 mg)): significant decrease
time post dose of lowest serum iron concentrations (serum iron levels [5]; subcutaneous, all three doses): 4 h
lethargy (serum iron levels [5]; subcutaneous, any dose level): No lethargy was observed
adverse effects [6, 13]: No unexpected adverse effects were observed
food consumption and body weight gain [6, 13]: non-adverse, dose-independent, reductions
injection site finding [6, 13]: induration
reticulocytes and iron concentration [6, 13]: dose-dependent reversible decreases
unsaturated iron binding capacity [6, 13]: increased
average serum iron levels compared to vehicle and pre-dose levels ([6]; Sprague Dawley rats, 5, 25 and 50 mg/kg SC, all doses): significantly decreased
time post dose of lowest serum iron level ([6]; Sprague Dawley rats, 5, 25 and 50 mg/kg SC, all three doses): 4 h
NOAEL ([6]; both, Sprague Dawley, rat, in vivo, sc): 50 mg/kg/day
percent change in ferritin blood levels (serum ferritin; patient 1001, sickle cell disease, 1 mg subcutaneous bolus): −45%
percent change in ferritin blood levels (serum ferritin; patient 1002, sickle cell disease, 1 mg subcutaneous bolus): −61%
percent change in ferritin blood levels (serum ferritin; patient 1003, hereditary hemochromatosis, normal baseline ferritin, 1 mg): 25%
percent change in ferritin blood levels (serum ferritin; patient 2001, hereditary hemochromatosis, normal baseline ferritin, 5 mg): −19%
percent change in ferritin blood levels (serum ferritin; patient 2002, hereditary hemochromatosis, normal baseline ferritin, 5 mg): 18%
ferritin blood levels versus baseline (serum ferritin; sickle cell disease patients 1001 and 1002 (high baseline ferritin), 1 mg subcutaneous bolus): lower
NOAEL at 15 Day ([7]; both sexes, dog, in vivo, sc, dogs, single subcutaneous dose): 5 mg/kg/day
other adverse reactions ([7]; dogs, 5, 25 and 50 mg/kg single subcutaneous dose): hunched posture, soft feces, gross pathology finding of “thick,” and subcutaneous fibrosis, mixed cell infiltration, and cysts present at recovery period
dose at which increased thickness in the administration site was observed ([7]; dogs, Day 4): 50 mg/kg
dose at which increased thickness in the administration site was observed ([7]; dogs, Day 15): ≥ 25 mg/kg
dose at which cystic space at the administration site was found (microscopic) ([7]; dogs, females, Day 15): ≥ 25 mg/kg
dose at which fibrosis at the administration site was found (microscopic) ([7]; dogs, females, Day 15): ≥ 5 mg/kg
dose at which mixed cell infiltration in the administration site was found (microscopic) ([7]; dogs, Day 4): ≥ 25 mg/kg
dose at which mixed cell infiltration in the administration site was found (microscopic) ([7]; dogs, Day 15): ≥ 5 mg/kg
dose at which cystic space at the administration site was found (microscopic) ([7]; dogs, males, Day 15): 50 mg/kg
dose at which fibrosis at the administration site was found (microscopic) ([7]; dogs, males, Day 15): ≥ 25 mg/kg
neutrophils and fibrinogen levels ([7]; dogs, up to Day 4, ≥25 mg/kg/day dose groups, not considered serious): temporary increases
